Experimental data published in patent publication US20230330254A1 (Regeneron Pharmaceuticals, Inc., priority 2022, published 2023).
Read-outs that look alike come from different tables or passages of the source. Where a SMILES comes first, the peptide text is derived from it. [ ]: non-standard residue; d: D form. The star is where a group is joined. Bip(2'-Et,4'-O(CH2)4NH2) = CCc1cc(OCCCCN)ccc1-c1ccc(C[C@H](N)C(=O)O)cc1; Malonyl(2,2-Me2,histaminyl) = CC(C)(C(=O)NCCc1cnc[nH]1)C(=O)*; Nva(5-(3,5-Me2Ph)) = Cc1cc(C)cc(CCC[C@H](N)C(=O)O)c1; Ala(1H-tetrazol-5-yl) = N[C@@H](Cc1nnn[nH]1)C(=O)O; αMePhe(2-F) = C[C@](N)(Cc1ccccc1F)C(=O)O; Desaminohistidyl = O=C(CCc1c[nH]cn1)*; X2 = CC(C)(C(N)=O)C(=O)*; X4 = CC(C)(C(=O)O)C(=O)*; Aib = CC(C)(N)C(=O)O; NHPh = c1ccc(N*)cc1

Columns and labels:
[1] = Plasma stability of payloads and linker-payloads, human plasma; type: in vitro ADME; conditions: plasma, 2 μM, 37° C., read-out: Human plasma stability assay T½ (converted)
Method: The plasma stability of payloads and linker payloads of the disclosure were measured. For the assay, pooled frozen plasma (human, mouse or monkey) was thawed in cold water or a 37° C. water bath prior to experiment. Plasma was centrifuged at 4000 rpm for 5 min if any clots were observed, they were subsequently removed. If required, the pH was adjusted to 7.4±0.1. For the preparation of compounds and positive controls, a 1 mM intermediate solution was prepared by diluting 10 μL of their stock solution with 90 μL DMSO; a 1 mM intermediate solution of the positive control (Propantheline) was prepared by diluting 10 μL of its stock solution with 90 μL ultrapure water. […] 98 μL of plasma was spiked with 2 μL of dosing solution (100 μM) to achieve the final concentration of 2 μM in duplicate. Samples were then incubated at 37° C. in a water bath. […] At each time point, 400 μL of stop solution (200 ng/mL tolbutamide plus 200 ng/mL labetalol in 50% ACN/MeOH) was added to precipitate protein and mixed thoroughly. Sample plates were then centrifuged at 4,000 rpm for 10 min. An aliquot of supernatant (50 μL) was transferred from each well and mixed with 100 μL ultrapure water. The samples were then shaken at 800 rpm for approximately 10 min before submitting for LC-MS/MS analysis.

[2] = Plasma stability of payloads (t½)
human GLP1R [3] = target: T1, human GLP1R (Homo sapiens, UniProt P43220); experiment: Luciferase reporter assay, HEK293/CRE-Luc/hGLP1R (Example 17); type: cell-based; parameters: engineered to express full-length human GLP1R, cynomolgus GLP1R; expressed in transfected cells; host or cells: HEK293/CRE-Luc; conditions: HEK293/CRE-Luc/hGLP1R; for S/N: highest RLU / RLU of untreated wells; for EC50: payloads and linker-payloads, experiments A-E, M2361 repeated in each, read-out: EC50; for Relative Potency (% M2361 EC50) / Relative Signal:Noise (% M2361): relative to M2361 of the same experiment
T1 sequence (P43220 24-463): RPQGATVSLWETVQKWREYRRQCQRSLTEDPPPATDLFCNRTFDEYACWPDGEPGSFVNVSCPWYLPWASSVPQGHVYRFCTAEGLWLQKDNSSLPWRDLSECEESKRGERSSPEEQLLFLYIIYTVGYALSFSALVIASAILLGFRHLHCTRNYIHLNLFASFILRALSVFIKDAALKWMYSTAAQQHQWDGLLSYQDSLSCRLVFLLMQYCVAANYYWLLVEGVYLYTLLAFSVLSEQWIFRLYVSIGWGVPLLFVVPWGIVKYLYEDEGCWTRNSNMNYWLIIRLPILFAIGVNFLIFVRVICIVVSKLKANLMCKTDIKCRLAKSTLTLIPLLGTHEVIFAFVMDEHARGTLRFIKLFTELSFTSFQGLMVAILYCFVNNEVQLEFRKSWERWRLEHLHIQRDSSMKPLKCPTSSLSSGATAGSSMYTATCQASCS
Outline: (§1)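 HEK293 cells carrying a CRE-driven firefly luciferase reporter were exposed to 3-fold serial dilutions of payloads or linker-payloads (12 points, 0.2% DMSO final) for 4–6 h, then luminescence was read. EC50 came from a four-parameter logistic fit; S/N is top RLU over untreated wells, and relative potency and S/N are referenced to M2361.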

HEK293/CRE-Luc cells [4] = experiment: Luciferase reporter assay, HEK293/CRE-Luc cells without hGLP1R (Example 11); type: cell-based, human; conditions: Table 11; Experiment A; no hGLP1R expression
From the text: (§2) To test the activity of GLP1R agonist payloads, GLP1R agonist linker-payloads (LPs), and anti-GLP1R antibody tethered drug conjugates (ATDCs) of the disclosure, a cell-based cAMP responsive luciferase reporter assay was developed. To generate the assay cell line, the firefly luciferase gene was placed under the control of a cAMP response element (CRE) located upstream of a minimal promoter and transfected into HEK293 cells and referred to herein as HEK293/CRE-Luc cells.
(§3) Three-fold serial dilutions of free payloads or LPs were prepared in 100% DMSO, transferred to fresh assay media, and added to the cells at a final constant DMSO concentration of 0.2%. The last well in the plate served as a blank control containing only the assay media and 0.2% DMSO (untreated well) and was plotted as a continuation of the 3-fold serial dilution. Four to six hours later, luciferase activity was determined after the addition of One-Glo™ reagent (Promega, Cat #E6130) to each well. Relative light units (RLUs) were measured on an Envision luminometer (PerkinElmer) and EC50 values were determined using a four-parameter logistic equation over a 12-point dose response curve (GraphPad Prism). The signal to noise (S/N) was determined by taking the ratio of the highest RLU on the dose response curve to the RLU in the untreated wells.

HEK293/CRE-Luc cells [5] = experiment: Luciferase reporter assay, HEK293/CRE-Luc cells without GLP1R (Example 17); type: cell-based, human; conditions: HEK293/CRE-Luc cells without hGLP1R, payloads and linker-payloads; for EC50: read-out: EC50
Outline: as §1

human GLP1R [6] = target: T1, human GLP1R; experiment: Luciferase reporter assay, HEK293/CRE-Luc/hGLP1R cells (Example 11); type: cell-based; parameters: engineered to express full-length human GLP1R, cynomolgus GLP1R; expressed in transfected cells; host or cells: HEK293/CRE-Luc; conditions: Table 11; Experiment A
From the text: as §2, §3
GLP1R agonist linker payloads were conjugated to anti-hGLP1R antibodies via N-terminal heavy or light chain Q tags. Several resulting anti-GLP1R antibody tethered drug conjugates (ATDCs) were tested for activity in the HEK293/CRE-Luc/hGLP1R reporter assay as described above for the free GLP1R payload and linker-payload agonists.

human GLP1R [7] = target: T1, human GLP1R; experiment: Human GLP1R cAMP accumulation assay; type: cell-based; parameters: HEK293 cells over-expressing full length human GLP-1R were utilized; expressed in transfected cells; host or cells: HEK293 (HEK293/hGLP1R); conditions: HEK293/hGLP1R cells; Table 4; read-out: cAMP EC50
Outline: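 cAMP accumulation measured after 30 min at 23° C, with 500 μM IBMX in HEPES-buffered HBSS plus 0.1% BSA, in HEK293 cells expressing full-length hGLP-1R. Levels read by D2-cAMP/antibody immunoassay via standard curve, scaled between low and high controls. EC50 fitted four-parameter over a 10-point curve.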

[8] = pH 7.4, tested time B (2 hrs per footnote)
[9] = pH 7.4, tested time A (1 day per footnote)

SMILES	half-life at 2 µM [1, 8] [h]	Plasma stability t½ [2] [h]	S/N (human GLP1R [3])	EC50 (human GLP1R [3]) [nM]	Relative Potency (% M2361 EC50) (human GLP1R [3]) [%]	Relative Signal:Noise (% M2361) (human GLP1R [3]) [%]	half-life at 2 µM [1, 9] [h]	EC50 (HEK293/CRE-Luc cells [4]) [nM]	HEK293/CRE-LUC S/N (HEK293/CRE-Luc cells [4])	S/N (HEK293/CRE-Luc cells [5])	EC50 (HEK293/CRE-Luc cells [5]) [nM]	EC50 (human GLP1R [6]) [nM]	HEK293/CRE-LUC/hGLP1R Relative Potency (% P8 EC50) (human GLP1R [6]) [%]	HEK293/CRE-LUC/hGLP1R S/N (human GLP1R [6])	EC50 (human GLP1R [7]) [nM]
CCc1cc(OCCCCN)ccc1-c1ccc(C[C@H](NC(=O)[C@H](CC(=O)O)NC(=O)[C@H](CO)NC(=O)[C@@H](NC(=O)[C@](C)(Cc2ccccc2F)NC(=O)[C@@H](NC(=O)CNC(=O)[C@@H](N)Cc2nn[nH]n2)[C@@H](C)O)[C@@H](C)O)C(=O)N[C@@H](CCCc2cc(C)cc(C)c2)C(N)=O)cc1 [P2]	10.7	10.7	306.2	19	0.1	93.4	–	–	–	–	–	–	–	–	–
CCc1cc(OCCCCN)ccc1-c1ccc(C[C@H](NC(=O)[C@H](CC(=O)O)NC(=O)[C@H](CO)NC(=O)[C@@H](NC(=O)[C@](C)(Cc2ccccc2F)NC(=O)[C@@H](NC(=O)CNC(=O)[C@H](Cc2nn[nH]n2)NC(=O)C(C)(C)C(=O)O)[C@@H](C)O)[C@@H](C)O)C(=O)N[C@@H](CCCc2cc(C)cc(C)c2)C(N)=O)cc1 [P3] (X4-[Ala(1H-tetrazol-5-yl)]GT[αMePhe(2-F)]TSD[Bip(2'-Et,4'-O(CH2)4NH2)][Nva(5-(3,5-Me2Ph))]-NH2)	–	>57.8	46.3	1.95	0.3	70.3	> 57.8	> 200	1.2	1.2	> 200	1.95	0.3	46.3	1.43
CCc1cc(OCCCCN)ccc1-c1ccc(C[C@H](NC(=O)[C@H](CC(=O)O)NC(=O)[C@H](CO)NC(=O)[C@@H](NC(=O)[C@](C)(Cc2ccccc2F)NC(=O)[C@@H](NC(=O)CNC(=O)[C@H](Cc2nn[nH]n2)NC(=O)C(C)(C)C(N)=O)[C@@H](C)O)[C@@H](C)O)C(=O)N[C@@H](CCCc2cc(C)cc(C)c2)C(N)=O)cc1 [P4] (X2-[Ala(1H-tetrazol-5-yl)]GT[αMePhe(2-F)]TSD[Bip(2'-Et,4'-O(CH2)4NH2)][Nva(5-(3,5-Me2Ph))]-NH2)	–	>57.8	66.9	0.0837	6.3	101.8	> 57.8	> 200	1.6	1.6	> 200	0.0837	6.3	66.9	0.156
CCc1cc(OCCCCN)ccc1-c1ccc(C[C@H](NC(=O)[C@H](CC(=O)O)NC(=O)[C@H](CO)NC(=O)[C@@H](NC(=O)[C@](C)(Cc2ccccc2F)NC(=O)[C@@H](NC(=O)CNC(=O)[C@H](Cc2nn[nH]n2)NC(=O)[C@H](C)NC(=O)[C@@H](N)Cc2cnc[nH]2)[C@@H](C)O)[C@@H](C)O)C(=O)N[C@@H](CCCc2cc(C)cc(C)c2)C(N)=O)cc1 [P10] (H-HA[Ala(1H-tetrazol-5-yl)]GT[αMePhe(2-F)]TSD[Bip(2'-Et,4'-O(CH2)4NH2)][Nva(5-(3,5-Me2Ph))]-NH2)	1.83	–	45.1	0.014	38.0	68.6	–	> 200	1.2	1.2	> 200	0.014	38.0	45.1	0.047
CCc1cc(OCCCCN)ccc1-c1ccc(C[C@H](NC(=O)[C@H](CC(=O)O)NC(=O)[C@H](CO)NC(=O)[C@@H](NC(=O)[C@](C)(Cc2ccccc2F)NC(=O)[C@@H](NC(=O)CNC(=O)[C@H](Cc2nn[nH]n2)NC(=O)CNC(=O)CCc2c[nH]cn2)[C@@H](C)O)[C@@H](C)O)C(=O)N[C@@H](CCCc2cc(C)cc(C)c2)C(N)=O)cc1 [P12] (Desaminohistidyl-G[Ala(1H-tetrazol-5-yl)]GT[αMePhe(2-F)]TSD[Bip(2'-Et,4'-O(CH2)4NH2)][Nva(5-(3,5-Me2Ph))]-NH2)	–	>57.8	–	0.0114	–	–	> 57.8	–	–	–	–	0.0114	–	–	0.039
CCc1cc(OCCCCN)ccc1-c1ccc(C[C@H](NC(=O)[C@H](CC(=O)O)NC(=O)[C@H](CO)NC(=O)[C@@H](NC(=O)[C@](C)(Cc2ccccc2F)NC(=O)[C@@H](NC(=O)CNC(=O)[C@H](Cc2nn[nH]n2)NC(=O)C(C)(C)NC(=O)[C@@H](N)Cc2ccc(O)cc2)[C@@H](C)O)[C@@H](C)O)C(=O)N[C@@H](CCCc2cc(C)cc(C)c2)C(N)=O)cc1 [P19] (H-Y[Aib][Ala(1H-tetrazol-5-yl)]GT[αMePhe(2-F)]TSD[Bip(2'-Et,4'-O(CH2)4NH2)][Nva(5-(3,5-Me2Ph))]-NH2)	–	>57.8	78.5	0.0535	9.9	119.4	> 57.8	–	–	1.0	> 200	–	–	–	0.156
CCc1cc(OCCCCN)ccc1-c1ccc(C[C@H](NC(=O)[C@H](CC(=O)O)NC(=O)[C@H](CO)NC(=O)[C@@H](NC(=O)[C@](C)(Cc2ccccc2F)NC(=O)[C@@H](NC(=O)CNC(=O)[C@H](Cc2nn[nH]n2)NC(=O)C(C)(C)C(=O)NCCc2cnc[nH]2)[C@@H](C)O)[C@@H](C)O)C(=O)N[C@@H](CCCc2cc(C)cc(C)c2)C(=O)Nc2ccccc2)cc1 [P23] ({Malonyl(2,2-Me2,histaminyl)}-[Ala(1H-tetrazol-5-yl)]GT[αMePhe(2-F)]TSD[Bip(2'-Et,4'-O(CH2)4NH2)][Nva(5-(3,5-Me2Ph))]-NHPh)	10.7	–	57.1	0.00515	103.0	86.9	–	> 200	1.6	1.6	> 200	0.00515	103.0	57.1	0.198
